# Test results as given in article PMC8228600, “Design, Synthesis, In Vitro and In Vivo Evaluation of Heterobivalent SiFAlin-Modified Peptidic Radioligands Targeting Both Integrin αvβ3 and the MC1 Receptor—Suitable for the Specific Visualization of Melanomas?” (Pharmaceuticals, 2021).
# Read-outs that look alike come from different tables or passages of the source.
# Columns and labels:
# [1] = logD(7.4) determination (n-octanol / phosphate buffer distribution); assay type: physicochemical; details: n-octanol / 0.05 M phosphate buffer pH 7.4; mean ± SD
# Procedure: Since high lipophilicity of peptidic radiotracers can lead to a high plasma protein binding, resulting in unspecific organ and high liver uptakes, thus negatively impact tumor visualization, the lipophilicity of the HBPLs was determined to get an approximate estimation of the in vivo biodistribution behavior of the radioligands. Therefore, the logD(7.4) values of the SiFAlin-modified HBPLs [^18F]1–[^18F]6 were determined via their distribution coefficient between n-octanol and phosphate buffer at pH 7.4.
# The radiotracer solutions were first diluted with 0.9% NaCl solution to give a final EtOH concentration of <10%. A total of 5 MBq of the respective radiotracer in solution was added to 1.6 mL of a mixture of n-octanol and 0.05 M phosphate buffer (pH = 7.4) (v/v, 1/1), and the solution was vigorously shaken for 5 min. Subsequently, the phases were separated by centrifugation at 13.4 rpm for 2 min, and 100 μL of organic and aqueous phases were collected. The activity of each sample was measured using a gamma counter. The lipophilicity of each compound was determined in triplicate in three independent experiments.
# [2] = Ex vivo biodistribution in tumor-bearing nude mice (non-tumor tissues); details: male, Balb/cAnNRj-Foxn1nu/nu (nude), mouse, iv, total radioactivity, ex vivo after PET/CT scan, i.v., n = 3
# Procedure: (§1) For the evaluation of the in vivo pharmacokinetics, the two most promising HBPLs—[^18F]2 with the highest affinity to both target receptors and [^18F]4 with the highest hydrophilicity and still reasonable binding affinities—were selected. For PET/CT imaging, 6-week-old male nude mice (Balb/cAnNRj-Foxn1^nu/nu) were subcutaneously injected with 5 × 10^5 B16F10 cells into the right flank and 2.0–2.5 × 10^6 U87MG cells into the left flank to generate the respective receptor-positive tumors. When the tumors reached a sufficient size for imaging, each mouse was administered 4.15 ± 2.28 MBq of [^18F]2 or 3.95 ± 2.06 MBq of [^18F]4 via the lateral tail vein under isoflurane anesthesia. To determine the receptor specificity of both peptide parts of the labeled HBPLs and their relative contribution to overall tumor uptake, blocking experiments were also performed. […] After i.v. injection of the tracers, a dynamic PET scan, followed by a CT scan, was performed. The resulting PET/CT images and time–activity curves (TACs) are depicted in Figure 6, Figure 7 and Figure 8. After completion of the diagnostic scans, the mice were sacrificed, their organs (blood, spleen, liver, kidney, pancreas, lung, heart, brain, bone, muscle, tail, tumors, stomach, colon and small intestine) were collected and measured in a γ-counter for ex vivo biodistribution (see Supplementary Materials Table S1 for detailed results).
# (§2) Each male nude mouse (six weeks old) was injected subcutaneously with 5 × 10^5 B16F10 cells into the right flank and 2.0–2.5 × 10^6 U87MG cells into the left flank. The health status and tumor growth of the mice were monitored regularly until the animals could be examined after 15–21 days, depending on the tumor size. For the in vivo experiments, the ^18F-radiolabeled compound was diluted in 0.9% saline to give a final EtOH concentration of <10%. Each mouse was injected with 4.15 ± 2.28 MBq of [^18F]2 or 3.95 ± 2.06 MBq of [^18F]4 via the lateral tail vein under isoflurane anesthesia. […] Each ^18F-labeled compound was studied with or without blocking in at least three mice. Mice were measured under isoflurane anesthesia in a small PET/SPECT/CT animal imaging system. First, a dynamic PET scan was performed over 90 min and the scan was framed in 29 timeframes (10 × 1 min, 10 × 2 min, 6 × 5 min, 3 × 10 min). Images were reconstructed using 12 iterations, a maximum likelihood expectation maximization (MLEM) algorithm including corrections for scattered radiation and decay and a voxel size of 0.5 mm. All PET scans were immediately followed by CT acquisition at a voltage of 45 kV and a current of 400 μA. The images were reconstructed using the filtered back projection (FBP) algorithm with a voxel size of 250 μm. The analysis of the data, including the generation of TACs of the kidneys, liver and tumors and the MIPs, was performed via PMOD (v3.8). For ex vivo biodistribution, the mice were sacrificed directly after the PET/CT scan. Organs (blood, spleen, liver, kidneys, pancreas, lungs, heart, brain, bone, muscle, tail, tumors, stomach, colon and small intestine) were collected, weighed and their radioactivity measured in a γ-counter. The percentage injected dose per gram (% ID/g) of each tissue was calculated from the determined values, organ weights, reference values and injected activity.
# B16F10 and U87MG tumors = assay: In vivo dynamic PET/CT imaging and time–activity curves; set-up: species or system nude mice (Balb/cAnNRj-Foxn1nu/nu)
# Procedure: as §1
# Briefly, 4–5-week-old male nude mice (Balb/cAnNRj-Foxn1^nu/nu) were obtained from Janvier. A dynamic PET scan over 90 min and a subsequent CT image over 20 min were acquired using a triple-modality Bruker Albira II small-animal PET/CT/SPECT scanner. Three animals were studied per group.
# as §2
smiles,measurement,setting,value
CCCC[C@H](NC(=O)CNC(=O)CNC(=O)CCOCCOCCOCCOCCC(=O)NCCCN(CCCNC(=O)CCOCCOCCOCCOCCC(=O)NCCCC[C@@H]1NC(=O)[C@@H](Cc2ccccc2)NC(=O)[C@H](CC(=O)O)NC(=O)CNC(=O)[C@H](CCCNC(=N)N)NC1=O)CC(=O)N[C@@H](CCCCNC(=O)CCC[N+](C)(C)Cc1ccc([Si](F)(C(C)(C)C)C(C)(C)C)cc1)C(N)=O)C(=O)N[C@H]1CC(=O)NCCCC[C@@H](C(N)=O)NC(=O)[C@H](Cc2c[nH]c3ccccc23)NC(=O)[C@H](CCCNC(=N)N)NC(=O)[C@@H](Cc2ccccc2)NC(=O)[C@H](Cc2c[nH]cn2)NC1=O [[^18F]2],logD,[1],-1.19 ± 0.05
same,tissue uptake at 1.5 h,"[2]; blood, NDP blocking (20 μg coinjected), read-out: ID/g, blood",0.84 ± 0.12 %ID/g
same,tissue uptake at 1.5 h,"[2]; blood, c(RGDyK) blocking (200 μg coinjected), read-out: ID/g, blood",1.14 ± 0.15 %ID/g
same,tissue uptake at 1.5 h,"[2]; blood, double blocking (NDP + c(RGDyK)), read-out: ID/g, blood",1.13 ± 0.1 %ID/g
same,tissue uptake at 1.5 h,"[2]; blood, without blocking, read-out: ID/g, blood",0.99 ± 0.23 %ID/g
same,tissue uptake at 1.5 h,"[2]; bone, NDP blocking (20 μg coinjected), read-out: ID/g, bone",9.74 ± 2.85 %ID/g
same,tissue uptake at 1.5 h,"[2]; bone, c(RGDyK) blocking (200 μg coinjected), read-out: ID/g, bone",4.12 ± 0.73 %ID/g
same,tissue uptake at 1.5 h,"[2]; bone, double blocking (NDP + c(RGDyK)), read-out: ID/g, bone",4.47 ± 1.57 %ID/g
same,tissue uptake at 1.5 h,"[2]; bone, without blocking, read-out: ID/g, bone",8.01 ± 3.48 %ID/g
same,tissue uptake at 1.5 h,"[2]; brain, NDP blocking (20 μg coinjected), read-out: ID/g, brain",0.13 ± 0.03 %ID/g
same,tissue uptake at 1.5 h,"[2]; brain, c(RGDyK) blocking (200 μg coinjected), read-out: ID/g, brain",0.13 ± 0.05 %ID/g
same,tissue uptake at 1.5 h,"[2]; brain, double blocking (NDP + c(RGDyK)), read-out: ID/g, brain",0.07 ± 0.01 %ID/g
same,tissue uptake at 1.5 h,"[2]; brain, without blocking, read-out: ID/g, brain",0.18 ± 0.02 %ID/g
same,tissue uptake,"[2]; colon, NDP blocking (20 μg coinjected), read-out: ID/g, colon",1.44 ± 0.34 %ID/g
same,tissue uptake,"[2]; colon, c(RGDyK) blocking (200 μg coinjected), read-out: ID/g, colon",0.5 ± 0.07 %ID/g
same,tissue uptake,"[2]; colon, double blocking (NDP + c(RGDyK)), read-out: ID/g, colon",0.63 ± 0.2 %ID/g
same,tissue uptake,"[2]; colon, without blocking, read-out: ID/g, colon",1.58 ± 0.44 %ID/g
same,tissue uptake at 1.5 h,"[2]; heart, NDP blocking (20 μg coinjected), read-out: ID/g, heart",1.06 ± 0.31 %ID/g
same,tissue uptake at 1.5 h,"[2]; heart, c(RGDyK) blocking (200 μg coinjected), read-out: ID/g, heart",0.62 ± 0.09 %ID/g
same,tissue uptake at 1.5 h,"[2]; heart, double blocking (NDP + c(RGDyK)), read-out: ID/g, heart",0.93 ± 0.18 %ID/g
same,tissue uptake at 1.5 h,"[2]; heart, without blocking, read-out: ID/g, heart",1.24 ± 0.36 %ID/g
same,tissue uptake at 1.5 h,"[2]; kidneys, NDP blocking (20 μg coinjected), read-out: ID/g, kidneys",17.3 ± 2.08 %ID/g
same,tissue uptake at 1.5 h,"[2]; kidneys, c(RGDyK) blocking (200 μg coinjected), read-out: ID/g, kidneys",12.1 ± 2.3 %ID/g
same,tissue uptake at 1.5 h,"[2]; kidneys, double blocking (NDP + c(RGDyK)), read-out: ID/g, kidneys",24 ± 6.34 %ID/g
same,tissue uptake at 1.5 h,"[2]; kidneys, without blocking, read-out: ID/g, kidneys",13.2 ± 3.57 %ID/g
same,tissue uptake at 1.5 h,"[2]; liver, NDP blocking (20 μg coinjected), read-out: ID/g, liver",14.9 ± 5.07 %ID/g
same,tissue uptake at 1.5 h,"[2]; liver, c(RGDyK) blocking (200 μg coinjected), read-out: ID/g, liver",4.94 ± 1.39 %ID/g
same,tissue uptake at 1.5 h,"[2]; liver, double blocking (NDP + c(RGDyK)), read-out: ID/g, liver",8.5 ± 2.71 %ID/g
same,tissue uptake,"[2]; liver, without blocking, read-out: ID/g, liver",17.2 ± 6.58 %ID/g
same,tissue uptake at 1.5 h,"[2]; lung, NDP blocking (20 μg coinjected), read-out: ID/g, lung",2.98 ± 0.87 %ID/g
same,tissue uptake at 1.5 h,"[2]; lung, c(RGDyK) blocking (200 μg coinjected), read-out: ID/g, lung",1.07 ± 0.15 %ID/g
same,tissue uptake at 1.5 h,"[2]; lung, double blocking (NDP + c(RGDyK)), read-out: ID/g, lung",1.3 ± 0.36 %ID/g
same,tissue uptake at 1.5 h,"[2]; lung, without blocking, read-out: ID/g, lung",2.89 ± 1.04 %ID/g
same,tissue uptake at 1.5 h,"[2]; muscle, NDP blocking (20 μg coinjected), read-out: ID/g, muscle",1.37 ± 0.26 %ID/g
same,tissue uptake at 1.5 h,"[2]; muscle, c(RGDyK) blocking (200 μg coinjected), read-out: ID/g, muscle",0.38 ± 0.04 %ID/g
same,tissue uptake at 1.5 h,"[2]; muscle, double blocking (NDP + c(RGDyK)), read-out: ID/g, muscle",0.34 ± 0.07 %ID/g
same,tissue uptake at 1.5 h,"[2]; muscle, without blocking, read-out: ID/g, muscle",4.37 ± 2.58 %ID/g
same,tissue uptake at 1.5 h,"[2]; pancreas, NDP blocking (20 μg coinjected), read-out: ID/g, pancreas",0.8 ± 0.15 %ID/g
same,tissue uptake at 1.5 h,"[2]; pancreas, c(RGDyK) blocking (200 μg coinjected), read-out: ID/g, pancreas",0.36 ± 0.04 %ID/g
same,tissue uptake at 1.5 h,"[2]; pancreas, double blocking (NDP + c(RGDyK)), read-out: ID/g, pancreas",0.55 ± 0.15 %ID/g
same,tissue uptake at 1.5 h,"[2]; pancreas, without blocking, read-out: ID/g, pancreas",0.91 ± 0.29 %ID/g
same,tissue uptake,"[2]; small intestine, NDP blocking (20 μg coinjected), read-out: ID/g, small intestine",2.75 ± 0.36 %ID/g
same,tissue uptake,"[2]; small intestine, c(RGDyK) blocking (200 μg coinjected), read-out: ID/g, small intestine",0.75 ± 0.11 %ID/g
same,tissue uptake,"[2]; small intestine, double blocking (NDP + c(RGDyK)), read-out: ID/g, small intestine",0.9 ± 0.23 %ID/g
same,tissue uptake,"[2]; small intestine, without blocking, read-out: ID/g, small intestine",2.46 ± 1.77 %ID/g
same,tissue uptake,"[2]; spleen, NDP blocking (20 μg coinjected), read-out: ID/g, spleen",2.75 ± 0.55 %ID/g
same,tissue uptake,"[2]; spleen, c(RGDyK) blocking (200 μg coinjected), read-out: ID/g, spleen",0.94 ± 0.19 %ID/g
same,tissue uptake,"[2]; spleen, double blocking (NDP + c(RGDyK)), read-out: ID/g, spleen",1.07 ± 0.32 %ID/g
same,tissue uptake,"[2]; spleen, without blocking, read-out: ID/g, spleen",2.73 ± 0.85 %ID/g
same,tissue uptake,"[2]; stomach, NDP blocking (20 μg coinjected), read-out: ID/g, stomach",1.52 ± 0.31 %ID/g
same,tissue uptake,"[2]; stomach, c(RGDyK) blocking (200 μg coinjected), read-out: ID/g, stomach",0.54 ± 0.04 %ID/g
same,tissue uptake,"[2]; stomach, double blocking (NDP + c(RGDyK)), read-out: ID/g, stomach",0.54 ± 0.12 %ID/g
same,tissue uptake,"[2]; stomach, without blocking, read-out: ID/g, stomach",1.56 ± 0.29 %ID/g
same,tissue uptake at 1.5 h,"[2]; tail, NDP blocking (20 μg coinjected), read-out: ID/g, tail",37.6 ± 8.67 %ID/g
same,tissue uptake at 1.5 h,"[2]; tail, c(RGDyK) blocking (200 μg coinjected), read-out: ID/g, tail",69 ± 3.84 %ID/g
same,tissue uptake,"[2]; tail, double blocking (NDP + c(RGDyK)), read-out: ID/g, tail",53.3 ± 12.8 %ID/g
same,tissue uptake at 1.5 h,"[2]; tail, without blocking, read-out: ID/g, tail",38 ± 14.4 %ID/g
same,visualization of B16F10 and U87MG tumors by PET/CT,"B16F10 and U87MG tumors; PET/CT scans, MIPs 50–90 min post-injection",clearly visualize
same,time at which uptakes in kidneys and liver reached their maximum (TACs),"B16F10 and U87MG tumors; dynamic PET over 90 min, i.v.",5 to 10 min
same,time at which the curves of both tumors approached a plateau (TACs),"B16F10 and U87MG tumors; dynamic PET over 90 min, i.v., B16F10 and U87MG tumors",about 70 min
